Laboratory results reported in PubChem BioAssay AID2060498 (Molecular Pharmacology Branch, DTP, NCI, 2025).
pIC50: −log10 of the molar value.

System: 171881-019-R-J1-PDC tumor spheroids, viability
Test: Anticancer human tumor 171881-019-R-J1-PDC patient-derived invasive breast carcinoma cell line growth inhibition [GQUAD]
Settings: spheroids with HUVEC and MSC; for pIC50: curve of first compound; for viability, T/C: stronger effect = lower value
How it was run: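 Viability of tumor cells grown as complex spheroids with endothelial and stromal cells, exposed to drug combinations. Top concentration at or near clinical Cmax (else 10 microM), diluted in half-log increments.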
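Note: spheroids exposed to compounds for 7 days.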
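Throughout, for viability, T/C: 100% = DMSO vehicle control viability.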

SMILES: C#Cc1c(F)ccc2cc(O)cc(-c3ncc4c(N5CC6CCC(C5)N6)nc(OCC56CCCN5CC(F)C6)nc4c3F)c12 (configuration not stated) + Cc1[nH]c2ccc(F)cc2c1-c1nc2c3cccnc3c3ncccc3c2[nH]1
- pIC50 (second compound 0.0316 µM): 6.22
- pIC50 (second compound 0.1 µM): 6.24
- pIC50 (second compound 0.316 µM): 6.55
- pIC50 (second compound 1 µM): 7.35
- pIC50 (second compound 3.16 µM): > 7.50
- pIC50 (second compound 10 µM): > 7.50
- viability, T/C (second compound 0.0316 µM, first compound 0.0316 µM): 103%
- viability, T/C (second compound 0.0316 µM, first compound 0.1 µM): 69.3%
- viability, T/C (second compound 0.0316 µM, first compound 0.316 µM): 60.6%
- viability, T/C (second compound 0.0316 µM, first compound 1 µM): 42.9%
- viability, T/C (second compound 0.0316 µM, first compound 3.16 µM): 24.6%
- viability, T/C (second compound 0.0316 µM, first compound 10 µM): 7.54%
- viability, T/C (second compound 0.1 µM, first compound 0.0316 µM): 92.8%
- viability, T/C (second compound 0.1 µM, first compound 0.1 µM): 75.1%
- viability, T/C (second compound 0.1 µM, first compound 0.316 µM): 59%
- viability, T/C (second compound 0.1 µM, first compound 1 µM): 41.2%
- viability, T/C (second compound 0.1 µM, first compound 3.16 µM): 25.1%
- viability, T/C (second compound 0.1 µM, first compound 10 µM): 6.93%
- viability, T/C (second compound 0.316 µM, first compound 0.0316 µM): 82.7%
- viability, T/C (second compound 0.316 µM, first compound 0.1 µM): 62.3%
- viability, T/C (second compound 0.316 µM, first compound 0.316 µM): 46.7%
- viability, T/C (second compound 0.316 µM, first compound 1 µM): 31%
- viability, T/C (second compound 0.316 µM, first compound 3.16 µM): 30%
- viability, T/C (second compound 0.316 µM, first compound 10 µM): 4.2%
- viability, T/C (second compound 1 µM, first compound 0.0316 µM): 55.6%
- viability, T/C (second compound 1 µM, first compound 0.1 µM): 39.8%
- viability, T/C (second compound 1 µM, first compound 0.316 µM): 36.8%
- viability, T/C (second compound 1 µM, first compound 1 µM): 23.4%
- viability, T/C (second compound 1 µM, first compound 3.16 µM): 22.9%
- viability, T/C (second compound 1 µM, first compound 10 µM): 0.29%
- viability, T/C (second compound 3.16 µM, first compound 0.0316 µM): 6.7%
- viability, T/C (second compound 3.16 µM, first compound 0.1 µM): 3.48%
- viability, T/C (second compound 3.16 µM, first compound 0.316 µM): 3.47%
- viability, T/C (second compound 3.16 µM, first compound 1 µM): 2.21%
- viability, T/C (second compound 3.16 µM, first compound 3.16 µM): 1.89%
- viability, T/C (second compound 3.16 µM, first compound 10 µM): 0.17%
- viability, T/C (second compound 10 µM, first compound 0.0316 µM): 23.8%
- viability, T/C (second compound 10 µM, first compound 0.1 µM): 27.4%
- viability, T/C (second compound 10 µM, first compound 0.316 µM): 15.8%
- viability, T/C (second compound 10 µM, first compound 1 µM): 15%
- viability, T/C (second compound 10 µM, first compound 3.16 µM): 6.1%
- viability, T/C (second compound 10 µM, first compound 10 µM): 0.16%
